Key:
HCT-116 [1] = assay: Antiproliferative activity against MTAP-knock out human HCT-116 cells assessed as maximal inhibition rate at 10 uM measured after 5 days by CTG assay relative to control; format: functional; conditions: time 5 day
[2] = Microsomal metabolic stability in human liver microsomes assessed as clearance; format: ADME, Microsome; conditions: read-out: CLH
[3] = molecular target: S-adenosylmethionine synthase isoform type-2 (Homo sapiens, UniProt P31153); assay: Inhibition of MAT2A (unknown origin) assessed as release of inorganic phosphate using ATP/L-methionine pre-incubated for 30 mins followed by substrate addition measured after 2.5 hrs by colorimetric assay
[4] = Microsomal metabolic stability in mouse liver microsomes assessed as clearance; format: ADME, Microsome; conditions: read-out: CLH
HCT-116 [5] = assay: Antiproliferative activity against MTAP-knock out human HCT-116 cells assessed as proliferation inhibition rate measured after 5 days by CTG assay; format: functional, cell-based; conditions: HCT-116, 120 h
[6] = Lipophilicity, log D of compound at pH 7.4 byHPLC method; format: physicochemical; conditions: buffer
[7] = Clearance in male ICR mouse at 10 mg/kg, po and 2 mg/kg, iv measured upto 24 hrs; format: ADME, organism-based; conditions: in vivo
[8] = Half life in male ICR mouse at 10 mg/kg, po and 2 mg/kg, iv measured upto 24 hrs; format: ADME, organism-based; conditions: in vivo
[9] = AUC (0 to infinity) in male ICR mouse at 10 mg/kg, po and 2 mg/kg, iv measured upto 24 hrs; format: ADME, organism-based; conditions: in vivo
[10] = Volume of distribution at steady state in male ICR mouse at 10 mg/kg, po and 2 mg/kg, iv measured upto 24 hrs; format: ADME, organism-based; conditions: in vivo
HCT-116 [11] = assay: Anti-tumor activity against human HCT-116 MATP(-/-) cells xenografted in mouse model assessed as tumor growth inhibition at 30 mg/kg QD relative to control; format: functional; conditions: read-out: TGI
HCT-116 [12] = assay: Anti-tumor activity against human HCT-116 MATP(-/-) cells xenografted in mouse model assessed as tumor growth inhibition at 200 mg/kg QD relative to control; format: functional; conditions: read-out: TGI

Sequence of S-adenosylmethionine synthase isoform type-2 (P31153 whole entry, canonical isoform): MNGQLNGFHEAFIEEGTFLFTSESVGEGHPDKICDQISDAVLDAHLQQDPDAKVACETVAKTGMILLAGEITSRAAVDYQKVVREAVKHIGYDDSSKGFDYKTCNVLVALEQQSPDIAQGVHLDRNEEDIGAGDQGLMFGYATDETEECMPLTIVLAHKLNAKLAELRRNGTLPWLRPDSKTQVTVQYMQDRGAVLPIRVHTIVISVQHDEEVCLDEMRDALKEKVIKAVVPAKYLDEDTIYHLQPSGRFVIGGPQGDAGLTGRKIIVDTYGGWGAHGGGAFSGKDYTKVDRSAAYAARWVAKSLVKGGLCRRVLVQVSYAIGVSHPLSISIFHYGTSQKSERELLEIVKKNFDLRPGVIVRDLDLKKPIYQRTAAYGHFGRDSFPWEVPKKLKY

Row | Compound | Imax (HCT-116 [1]) [%] | CLint scaled [2] [mL/min/kg] | IC50 [3] [nM] | CLint scaled [4] [mL/min/kg] | IC50 (HCT-116 [5]) [nM] | logD [6] | clearance [7] [mL/min/kg] | half-life [8] [h] | AUC(0-inf) [9] [ng·h/mL] | Vdss [10] [L/kg] | inhibition in vivo at 30 mg/kg (HCT-116 [11]) [%] | inhibition in vivo at 200 mg/kg (HCT-116 [12]) [%]
1 | CNC1=NC(=O)C2(CCCc3ccccc32)c2nc(C(F)(F)F)ccc21 (centres undefined) | 74.25 | 24.1 | 12 | 193 | 57 | – | – | – | – | – | – | –
2 | COc1cc(NC2=NC(=O)C3(CCc4ncccc43)c3cc(C(F)(F)F)ccc32)ccn1 (racemic) | 56.22 | – | 12 | – | 180 | 3.29 | – | – | – | – | – | –
3 | CNC1=NC(=O)C2(CCc3c(F)cccc32)c2nc(C(F)(F)F)ccc21 (centres undefined) | 86.45 | 13.4 | 11 | 118 | 105 | – | – | – | – | – | – | –
4 | CNC1=NC(=O)C2(CCc3ncccc32)c2cc(C3CC3)ncc21 (centres undefined) | 79.52 | – | 47 | – | 1060 | 1.1 | – | – | – | – | – | –
5 | CNC1=NC(=O)C2(CCc3c(C#N)cccc32)c2nc(C(F)(F)F)ccc21 (centres undefined) | 76.16 | < 9.3 | 18 | 48.2 | 1100 | – | – | – | – | – | – | –
6 | Nc1nc(=O)n(-c2ccccc2Cl)c2nc(C(F)(F)F)ccc12 (single isomer, unassigned; atropisomer A) | – | – | 3 | – | – | – | – | – | – | – | – | –
7 | CNC1=NC(=O)C2(Cc3ccccc3C2)c2nc(C(F)(F)F)ccc21 | – | – | 55 | – | – | – | – | – | – | – | – | –
8 | COC1(C(=O)N2Cc3nc(Cl)nc(N[C@H](C)c4cc(N)cc(C(F)(F)F)c4)c3C2)CCOCC1 | – | < 9.3 | – | < 9.3 | – | – | – | – | – | – | – | –
9 | CNC1=NC(=O)C2(CCc3ncccc32)c2cc(C(C)(F)F)ccc21 (centres undefined) | 100 | < 9.3 | 9 | 55 | 101 | 1.57 | – | – | – | – | – | –
10 | [2H]C([2H])([2H])NC1=NC(=O)[C@]2(CCc3ncccc32)c2cc(C3CC3)ccc21 | 78.6 | 11.2 | 4 | 63 | 55 | 1.92 | 13.1 | 1.47 | 22000 | 1.26 | – | –
11 | CNC1=NC(=O)C2(CCc3ncccc32)c2cc(C3CC3)ccc21 (centres undefined) | 97.11 | 12.3 | 6 | 85.7 | 66 | 1.92 | – | – | – | – | – | –
12 | CNC1=NC(=O)C2(CCc3ncccc32)c2nc(C(F)(F)F)ccc21 (centres undefined) | 87.63 | < 9.3 | 9 | 67 | 149 | – | 9.06 | 3.35 | 18600 | 2.42 | – | –
13 | NC1=NC(=O)C2(CCc3ncccc32)c2cc(C(F)(F)F)ccc21 (racemic) | 75.59 | < 9.6 | 4 | < 9.6 | 100 | 1.76 | 8.48 | 1.92 | 20400 | 1.68 | – | –
14 | CN(C)C1=NC(=O)C2(CCc3ncccc32)c2cc(C(F)(F)F)ccc21 (racemic) | 79.25 | – | 19 | – | 119 | 2.24 | – | – | – | – | – | –
15 | O=C1N=C(NC2CC2)c2ccc(C(F)(F)F)cc2C12CCc1ncccc12 (racemic) | 71.61 | – | 4 | – | 146 | 2.77 | – | – | – | – | – | –
16 | CNC1=NC(=O)C2(CCc3ccc(F)cc32)c2nc(C(F)(F)F)ccc21 (centres undefined) | 52.53 | – | 55 | – | 23300 | – | – | – | – | – | – | –
17 | CNC1=NC(=O)C2(CCc3cccnc32)c2nc(C(F)(F)F)ccc21 (centres undefined) | – | – | 591 | – | – | – | – | – | – | – | – | –
18 | CNC1=NC(=O)C2(CCc3cc(F)ccc32)c2nc(C(F)(F)F)ccc21 (centres undefined) | 55.77 | < 9.3 | 33 | 71.6 | 4710 | – | – | – | – | – | – | –
19 | [2H]C([2H])([2H])NC1=NC(=O)C2(CCc3ncccc32)c2cc(C(F)(F)F)ccc21 (racemic) | 92 | < 9.3 | 8 | 42.5 | 115 | 1.82 | 5.13 | 3.64 | 56700 | 1.39 | – | –
20 | O=C1N=C(NCC(F)(F)F)c2ccc(C(F)(F)F)cc2C12CCc1ncccc12 (racemic) | 101.9 | < 9.3 | 10 | < 29.3 | 263 | 2.73 | – | – | – | – | – | –
21 | CNC1=NC(=O)C(C)(c2ccccc2)c2nc(C(F)(F)F)ccc21 (centres undefined) | – | – | 57 | – | – | – | – | – | – | – | – | –

Row | Compound | Imax (HCT-116 [1]) [%] | CLint scaled [2] [mL/min/kg] | IC50 [3] [nM] | CLint scaled [4] [mL/min/kg] | IC50 (HCT-116 [5]) [nM] | logD [6] | clearance [7] [mL/min/kg] | half-life [8] [h] | AUC(0-inf) [9] [ng·h/mL] | Vdss [10] [L/kg] | inhibition in vivo at 30 mg/kg (HCT-116 [11]) [%] | inhibition in vivo at 200 mg/kg (HCT-116 [12]) [%]
22 | CNC1=NC(=O)C2(CCc3ncccc32)c2cc(C=C(F)F)ccc21 (centres undefined) | 96.49 | – | 16 | – | 2440 | 1.95 | – | – | – | – | – | –
23 | Cn1cnc2c(=O)n(-c3cccnc3C3CC3)c3cc(Cl)ccc3c21 | – | – | – | – | – | – | – | – | – | – | 82.9 | –
24 | CNC1=NC(=O)C2(CCc3ccccc32)c2nc(C(F)(F)F)ccc21 (centres undefined) | 77.71 | < 9.3 | 7 | 59 | 17 | – | 29.3 | 2.05 | 6020 | 3.665 | – | –
25 | CNC1=NC(=O)C2(OCc3ccccc32)c2nc(C(F)(F)F)ccc21 (centres undefined) | – | – | > 3000 | – | – | – | – | – | – | – | – | –
26 | CNC1=NC(=O)C2(CCc3ncccc32)c2cc(C3CC3)c(F)cc21 (centres undefined) | 84.78 | < 9.3 | 4 | 38.9 | 83 | 2.24 | – | – | – | – | – | –
27 | CNc1nc(=O)n(-c2ccccc2Cl)c2nc(C(F)(F)F)ccc12 (single isomer, unassigned; atropisomer 2) | – | – | 86 | – | – | – | – | – | – | – | – | –
28 | CNC1=NC(=O)C2(CC(C)(C)c3ccccc32)c2nc(C(F)(F)F)ccc21 (centres undefined) | – | – | 78 | – | > 10000 | – | – | – | – | – | – | –
29 | [2H]C([2H])([2H])NC1=NC(=O)[C@]2(CCc3ncccc32)c2cc(C3CC3)c(F)cc21 | 77 | < 9.3 | 4 | 38.9 | 49 | 2.2 | 11.4 | 2.1 | 12300 | 1.02 | – | –
30 | CNC1=NC(=O)C2(CCc3ncccc32)c2cc(OC(F)F)ccc21 (centres undefined) | 83.08 | – | 8 | – | 193 | 1.36 | – | – | – | – | – | –
31 | CNC1=NC(=O)C2(COc3ccccc32)c2nc(C(F)(F)F)ccc21 (centres undefined) | 51.99 | – | 115 | – | 5080 | – | – | – | – | – | – | –
32 | CNC1=NC(=O)C2(CCc3c(Br)cccc32)c2nc(C(F)(F)F)ccc21 (centres undefined) | – | – | 18 | – | – | – | – | – | – | – | – | –
33 | O=C1N=C(NC2CC(F)(F)C2)c2ccc(C(F)(F)F)cc2C12CCc1ncccc12 (racemic) | 77.73 | – | 5 | – | 283 | 2.88 | – | – | – | – | – | –
34 | C=C(c1ccc2c(c1)C1(CCc3ncccc31)C(=O)N=C2NC)C(F)(F)F (centres undefined) | – | – | 64 | – | – | 2.4 | – | – | – | – | – | –
35 | CNC1=NC(=O)C2(CCc3ncccc32)c2cc(C(F)(F)C(F)(F)F)ccc21 (centres undefined) | 66.34 | – | 6 | – | 405 | 2.55 | – | – | – | – | – | –
36 | CNC1=NC(=O)C2(CCc3ncccc32)c2cc(C(F)(F)F)ccc21 (racemic) | 93.27 | < 9.3 | 11 | 51.2 | 97 | 1.83 | 6.77 | 3.53 | 35200 | 2.2 | – | –
37 | O=C1N=C(NC2COC2)c2ccc(C(F)(F)F)cc2C12CCc1ncccc12 (racemic) | – | – | > 3000 | – | – | 1.57 | – | – | – | – | – | –
38 | [2H]C([2H])([2H])NC1=NC(=O)[C@]2(CCc3ncccc32)c2cc(C(C)(F)F)c(F)cc21 | 85.98 | < 9.3 | 4 | < 29.3 | 70 | 1.87 | 11.2 | 1.58 | 14200 | 1.15 | – | –
39 | CNC1=NC(=O)C2(CCc3cccc(F)c32)c2nc(C(F)(F)F)ccc21 (centres undefined) | 71.66 | – | 24 | – | 225 | – | – | – | – | – | – | –
40 | COc1ccc(-c2c(Nc3ccccn3)[nH]c3c(C4=CCCCC4)c(-c4ccccc4)nn3c2=O)cc1 | 100 | < 9.3 | – | 40.3 | 492 | – | – | – | – | – | – | 52
41 | CNC1=NC(=O)C2(CCc3ncccc32)c2cc(C3CC3)cc(F)c21 (centres undefined) | 78.29 | – | 13 | – | 240 | 2.21 | – | – | – | – | – | –
42 | CNc1nc(=O)n(-c2ccccc2Cl)c2nc(C(F)(F)F)ccc12 (single isomer, unassigned; atropisomer 1) | – | – | 3 | – | – | – | – | – | – | – | – | –

From ChEMBL document CHEMBL6121044, “Discovery of Novel Spirocyclic MAT2A Inhibitors Demonstrating High In Vivo Efficacy in MTAP-Null Xenograft Models” (J Med Chem, 2025)
